Key:
oilseed rape = test: Test C preemergence; assay type: in vivo, Brassica napus; settings: for Plant response rating (scale of 0 to 100 where 0 is no effect and 100 is complete control): Oilseed Rape, preemergence; for Oilseed Rape plant response rating (0 to 100): Preemergence, visual rating after 13 to 15 d
Outline: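 Test chemicals in a non-phytotoxic solvent mixture with surfactant were applied to pots of plants at 2 to 18 cm (1- to 4-leaf stage) for postemergence treatment, grown in a peat-based medium with vermiculite, starter nutrients and dolomitic limestone. Preemergence treatment was to seeds freshly planted in loam soil mixed with sand.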

bluegrass = test: Test D preemergence; assay type: in vivo, Poa annua; settings: for Plant response rating: Bluegrass: scale 0 to 100
Outline: (§1)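 Both application timings used one formulation, a non-phytotoxic solvent mixture with surfactant. Preemergence pots held silt loam, and postemergence plants grew in peat moss/vermiculite medium to the 1- to 4-leaf stage. All plants were held under controlled conditions for 14 to 21 d before visual scoring relative to controls.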

galium = test: Test D preemergence; assay type: in vivo, Galium aparine; settings: for Plant response rating: Galium: scale 0 to 100
Outline: as §1

bromegrass, down [1] = test: Test D preemergence; assay type: in vivo, Bromus tectorum; settings: for Plant response rating: Bromegrass, Down: scale 0 to 100
Outline: as §1

Russian thistle = test: Test D preemergence; assay type: in vivo, Salsola kali; settings: for Plant response rating: Russian Thistle: scale 0 to 100
Source text: Seeds of plant species selected from bluegrass (annual bluegrass, Poa annua), blackgrass (Alopecurus myosuroides), canarygrass (Phalaris minor), chickweed (common chickweed, Stellaria media), galium (catchweed bedstraw, Galium aparine), bromegrass, down (downy bromegrass, Bromus tectorum), Russian thistle (Salsola kali), field poppy (Papaver rhoeas), field violet (Viola arvensis), foxtail, green (green foxtail, Setaria viridis), deadnettle (henbit deadnettle, Lamium amplexicaule), ryegrass, Ital. (Italian ryegrass, Lolium multiflorum), kochia (Kochia scoparia), lambsquarters (Chenopodium album), oilseed rape (Brassica napus), pigweed (Amaranthus retroflexus), chamomile (scentless chamomile, Matricaria inodora), speedwell (bird's-eye speedwell, Veronica persica), barley, spring (spring barley, Hordeum vulgare), wheat, spring (spring wheat, Triticum aestivum), buckwheat, wild (wild buckwheat, Polygonum convolvulus), wild mustard (Sinapis arvensis), oat, wild (wild oat, Avena fatua), radish, wild (wild radish, Raphanus raphanistrum), […]), barley, winter (winter barley, Hordeum vulgare), and wheat, winter (winter wheat, Triticum aestivum) were planted into a silt loam soil and treated preemergence with test chemicals formulated in a non-phytotoxic solvent mixture which included a surfactant. At the same time, these species were planted in pots containing Sunshine Redi-Earth® planting medium comprising spaghnum peat moss, vermiculite, starter nutrients and dolomitic limestone and treated with postemergence applications of the test chemicals formulated in the same manner. Plants ranged in height from 2 to 18 cm (1- to 4-leaf stage). Treated plants and controls were maintained in a controlled growth environment for 14 to 21 d after which time all species were compared to controls and visually evaluated. […] A dash (-) response means no test result.

lambsquarters = test: Test D preemergence; assay type: in vivo, Chenopodium album; settings: for Plant response rating: Lambsquarters: scale 0 to 100
Outline: as §1

blackgrass = test: Test D postemergence; assay type: in vivo, Alopecurus myosuroides; settings: scale 0 to 100
Outline: as §1

canarygrass = test: Test D postemergence; assay type: in vivo, Phalaris minor; settings: scale 0 to 100
Outline: as §1

bromegrass, down [2] = test: Test D postemergence; assay type: in vivo, Bromus tectorum; settings: scale 0 to 100
Outline: as §1

chamomile = test: Test D postemergence; assay type: in vivo, Matricaria inodora; settings: scale 0 to 100
Outline: as §1

wheat, spring = test: Test D postemergence; assay type: in vivo, Triticum aestivum; settings: scale 0 to 100
Outline: as §1

wheat, winter = test: Test D postemergence; assay type: in vivo, Triticum aestivum; settings: scale 0 to 100
Outline: as §1

buckwheat, wild = test: Test D postemergence; assay type: in vivo, Polygonum convolvulus; settings: scale 0 to 100
Outline: as §1

[3] = 16 g ai/ha, 0 is no effect, 100 is complete control

CCOc1nc(-c2ccc(C(F)(F)F)cc2)nn1Cc1ccnc(C(F)(F)F)c1 [Compound 35, 4-[[5-ethoxy-3-[4-(trifluoromethyl)phenyl]-1H-1,2,4-triazole-1-yl]methyl]-2-(trifluoromethyl)pyridine]
Plant response rating (scale of 0 to 100 where 0 is no effect and 100 is complete control) (oilseed rape; 125 g ai/ha): 90 | Plant response rating (scale of 0 to 100 where 0 is no effect and 100 is complete control) (oilseed rape; 250 g ai/ha): 90 | Oilseed Rape plant response rating (0 to 100) (oilseed rape; 31 g ai/ha): 80 | Oilseed Rape plant response rating (0 to 100) (oilseed rape; 62 g ai/ha): 75 | Plant response rating (0 to 100), Bluegrass (bluegrass; [3]): 70 | Plant response rating: Bluegrass (bluegrass; 31 g ai/ha): 80 | Plant response rating: Bluegrass (bluegrass; 62 g ai/ha): 95 | Plant response rating: Bluegrass (bluegrass; 125 g ai/ha): 100 | Plant response rating (0 to 100), Galium (galium; [3]): 70 | Plant response rating: Galium (galium; 62 g ai/ha): 80 | Plant response rating: Galium (galium; 125 g ai/ha): 80 | Plant response rating (0 to 100), Bromegrass, Down (bromegrass, down [1]; [3]): 15 | Plant response rating: Bromegrass, Down (bromegrass, down [1]; 31 g ai/ha): 40 | Plant response rating: Bromegrass, Down (bromegrass, down [1]; 62 g ai/ha): 60 | Plant response rating: Bromegrass, Down (bromegrass, down [1]; 125 g ai/ha): 75 | Plant response rating (0 to 100), Russian Thistle (Russian thistle; [3]): 70 | Plant response rating: Russian Thistle (Russian thistle; 62 g ai/ha): 80 | Plant response rating: Russian Thistle (Russian thistle; 125 g ai/ha): 85 | Plant response rating (0 to 100), Lambsquarters (lambsquarters; [3]): 85 | Plant response rating: Lambsquarters (lambsquarters; 62 g ai/ha): 95 | Plant response rating: Lambsquarters (lambsquarters; 125 g ai/ha): 100 | Plant response rating: Blackgrass (blackgrass; 16 g ai/ha): 35 | Plant response rating: Blackgrass (blackgrass; 31 g ai/ha): 55 | Plant response rating: Blackgrass (blackgrass; 62 g ai/ha): 70 | Plant response rating: Blackgrass (blackgrass; 125 g ai/ha): 80 | Plant response rating: Canarygrass (canarygrass; 16 g ai/ha): 65 | Plant response rating: Canarygrass (canarygrass; 31 g ai/ha): 70 | Plant response rating: Canarygrass (canarygrass; 62 g ai/ha): 75 | Plant response rating: Canarygrass (canarygrass; 125 g ai/ha): 80 | Plant response rating: Bromegrass, Down (bromegrass, down [2]; 16 g ai/ha): 40 | Plant response rating: Bromegrass, Down (bromegrass, down [2]; 31 g ai/ha): 55 | Plant response rating: Bromegrass, Down (bromegrass, down [2]; 62 g ai/ha): 60 | Plant response rating: Bromegrass, Down (bromegrass, down [2]; 125 g ai/ha): 75 | Plant response rating: Chamomile (chamomile; 16 g ai/ha): 70 | Plant response rating: Chamomile (chamomile; 31 g ai/ha): 75 | Plant response rating: Chamomile (chamomile; 62 g ai/ha): 95 | Plant response rating: Chamomile (chamomile; 125 g ai/ha): 100 | Plant response rating: Wheat, Spring (wheat, spring; 16 g ai/ha): 25 | Plant response rating: Wheat, Spring (wheat, spring; 31 g ai/ha): 40 | Plant response rating: Wheat, Spring (wheat, spring; 62 g ai/ha): 50 | Plant response rating: Wheat, Spring (wheat, spring; 125 g ai/ha): 50 | Plant response rating: Wheat, Winter (wheat, winter; 16 g ai/ha): 20 | Plant response rating: Wheat, Winter (wheat, winter; 31 g ai/ha): 35 | Plant response rating: Wheat, Winter (wheat, winter; 62 g ai/ha): 40 | Plant response rating: Wheat, Winter (wheat, winter; 125 g ai/ha): 45 | Plant response rating: Buckwheat, Wild (buckwheat, wild; 16 g ai/ha): 65 | Plant response rating: Buckwheat, Wild (buckwheat, wild; 31 g ai/ha): 70 | Plant response rating: Buckwheat, Wild (buckwheat, wild; 62 g ai/ha): 70 | Plant response rating: Buckwheat, Wild (buckwheat, wild; 125 g ai/ha): 95
